Test results taken from patent publication US9051240B2, “Substituted 2-[2-(phenyl) ethylamino] alkaneamide derivatives and their use as sodium and/or calcium channel modulators” (Newron Pharmaceuticals S.P.A., priority 2007, dated 2015).

Tests used:
MAO-B = MAO-B (Rattus norvegicus (Rat), UniProt P19643); experiment: In vitro MAO-B enzyme activity assay (radioenzymatic, rat brain mitochondria); assay type: biochemical; settings: 14C-PEA 0.5 μM
Description: Male Wistar rats (Harlan, Italy weighing 175-200 g) were sacrificed under light anaesthesia and brains were rapidly removed and homogenized in 8 volumes of ice-cold 0.32 M sucrose buffer containing 0.1 M EDTA, pH 7.4. The crude homogenate was centrifuged at 2220 rpm for 10 minutes and the supernatant recovered. The pellet was homogenized and centrifuged again. The two supernatants were pooled and centrifuged at 9250 rpm for 10 minutes at +4° C. The pellet was resuspended in fresh buffer and centrifuged at 11250 rpm for 10 minutes at +4° C. The resulting pellet was stored at −80° C. The enzyme activity was assessed with a radioenzymatic assay using the substrate ^14C-phenylethylamine (PEA) specific for MAO-B. The mitochondrial pellet (500 μg protein) was resuspended in 0.1 M phosphate buffer (pH 7.4). 200 μl of the suspension were added to a 50 μl solution of the test compound or buffer, and incubated for 30 min at 37° C. (preincubation) then the substrate (50 μl) was added. The incubation was carried out for 10 minutes at 37° C. (^14C-PEA, 0.5 μM). The reaction was stopped by adding 0.2 ml of perchloric acid. After centrifugation, the deaminated metabolites were extracted with 3 ml of toluene and the radioactive organic phase containing the neutral and/or acidic metabolites formed as a result of MAO-B activity was measured by liquid scintillation spectrometry at 90% efficiency. The MAO-B activity was expressed as nmoles of substrate transformed/mg protein/min.

mice [1] = experiment: Maximal electroshock test (MES) in mice; assay type: in vivo; settings: for ED50: Mus musculus
Excerpt: The maximal electroshock test (MES) is used commonly in the screening of anti-epileptic drugs in rodent models.
Animals and Apparatus: Male CD1 mice weighing 25 g were used. The procedure described by White et al. (White H. S., Woodhead J. H., Franklin M. R., Swinyard E. A., and Wolf H. H. Antiepileptic Drugs (1995) 4th ed: 99-110, Raven Press, Ltd., New York) was followed. An Ugo Basile electroconvulsive generator (Model ECT UNIT 7801) was used to deliver an electrical stimulus sufficient to produce a hindlimb tonic extensor response in at least 97% of control animals. The stimulus was delivered intra-aurally through clip electrodes in mice (0.7 s of a 40 mA shock, with a pulse train of 80 Hz having a pulse duration of 0.4 ms). The acute effect of compounds administered intraperitoneally (i.p.), subcutaneously (s.c.), intravenously (i.v.) or orally (p.o.) 5-120 minutes before MES induction were examined and compared with a vehicle control group. Ten mice were studied per group. Complete suppression of the hindlimb tonic extensor component of seizures was taken as evidence of anticonvulsant activity.
The compounds of the invention were administered p.o. or i.v., at the doses of 0.1-100 mg/kg.

TTXs sodium channels = experiment: TTXs-sodium channel influx assay (fluorescence, ND7/23 cell line); assay type: cell-based, rat; settings: ND7/23 cells, veratridine 100 μM; read-out: Na+ influx IC50
Description: ND7/23 rat dorsal root ganglion-derived cell line endogenously expresses a mixed population of TTXs sodium channels. These cells lack of TTXr sodium channels as shown by the absence of their respective transcripts.
ND7/23 cells were grown in DMEM supplemented with 10% FBS and 1 mM sodium piruvate. The cells were seeded at 50,000 cells/well on 96 poly-L-lysine-coated plates and further incubated for 18-24 h before use.
The Membrane Potential Kit Assay (Molecular Devices), based on a negatively charged fluorescent dye able to monitor changes in membrane potential caused by the sodium influx due to the channel opening, was used for the assay.
Cells were incubated with the dye loading for 30 minutes at 25° C. Then, 100 nM of the toxin Anemonia sulcata (used as enhancer of the channel opener response) alone or in the presence of TTX (as reference standard) or test compound were added for further 15 minutes.
The fluorescence (excitation:530 nm, emission: 565 nm wavelength) was measured before and after (40-45 s) the automated injection of the sodium channel opener veratridine (100 μM) using a Victor plate reader (Perkin Elmer).
The inhibition curves were calculated from 5 concentrations, each in triplicate, and the IC50 determined using linear regression analysis.

mice [2] = experiment: Formalin test; assay type: in vivo; settings: Mus musculus, po
Description: According to a modified protocol from Rosland et al. (Rosland J. H., Tjolsen A., Maehle B., Hole K. Pain (1990) 42: 235-242), mice were injected subcutaneously (s.c.) with 20 μl of 2.7% solution of formalin into the plantar surface of left hindpaw and placed immediately into clear PVC observation chambers (23×12×13 cm). Pain behaviour was quantified by counting the cumulative licking time (s) of the injected paw. Measurements were taken during the early phase (0-5 min) and late phase (20-40 min) after formalin injection (Tjolsen A., Berge O. G., Hunskaar S., Rosland J. H., Hole K. Pain (1992) 51: 5-17).
The test compound was administered p.o. or s.c. 5-45 minutes before formalin injection in a volume of 10 ml/kg body weight to groups of 10 mice per dose. Control group was treated with vehicle.

MAO-B, sequence (P19643 whole entry): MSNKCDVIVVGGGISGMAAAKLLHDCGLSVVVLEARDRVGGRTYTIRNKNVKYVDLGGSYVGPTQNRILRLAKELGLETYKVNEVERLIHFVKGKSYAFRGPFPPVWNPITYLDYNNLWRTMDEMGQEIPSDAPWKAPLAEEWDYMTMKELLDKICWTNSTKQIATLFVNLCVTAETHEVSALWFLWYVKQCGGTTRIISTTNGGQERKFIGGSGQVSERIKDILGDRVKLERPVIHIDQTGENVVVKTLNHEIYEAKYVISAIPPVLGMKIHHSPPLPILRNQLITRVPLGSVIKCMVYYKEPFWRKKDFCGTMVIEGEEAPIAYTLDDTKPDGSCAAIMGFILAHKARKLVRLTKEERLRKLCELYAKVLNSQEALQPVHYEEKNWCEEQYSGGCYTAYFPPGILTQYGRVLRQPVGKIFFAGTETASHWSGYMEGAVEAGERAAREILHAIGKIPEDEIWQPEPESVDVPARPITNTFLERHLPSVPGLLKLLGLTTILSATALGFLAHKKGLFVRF

SMILES | IC50 (MAO-B) | ED50 (mice [1]; iv, mice, MES, i.v., read-out: MES ED50 mg/kg i.v.) | ED50 (mice [1]; po, mice, MES, p.o., read-out: ED50 (mg/kg p.o.)) | % protection 10 mg/kg p.o. (mice [1]; mice, MES, 10 mg/kg p.o.) | IC50 (TTXs sodium channels) | ED50 (mice [2]) | ED50 (mice [1]; iv, read-out: MES ED50 mg/kg i.v.)
CCCCOc1cccc(CCNCC(=O)N(C)C)c1.Cl [2-[2-(3-Butoxyphenyl)-ethylamino]-N,N-dimethylacetamide hydrochloride] | 231 µM | 0.2 mg/kg | 4.3 mg/kg | 100% | 1.5 µM | 14.9 mg/kg | –
C[C@H](NCc1ccc(OCc2ccccc2F)cc1)C(N)=O [ralfinamide, (S)-(+)-2-[4-(2-fluorobenzyloxy)-benzylamino]-propanamide, reference compound] | 0.2 µM | – | – | – | 9.5 µM | 29.3 mg/kg | 2.7 mg/kg
